Residues, ends and D or L forms follow the SMILES beside them. *: point of attachment. Cbz = O=C(OCc1ccccc1)*
Key:
c-IAP1 [1] = assay: Co-transfection of HeLa cells with c-IAP1 and Smac plasmids, Western blot; type: cell-based, human; details: MG132 added to the culture medium
Method: (§1) Transfection of cultured Cells—HeLa cells were grown in DMEM supplemented with 10% fetal bovine serum. Cells were seeded onto 6-well plates the day before transfection and transfected at 70% confluence by using Lipofectin combined with Plus reagent (Invitrogen) according to the manufacture's protocols. The IAP expression plasmids (3 μg each for c-IAP1, c-IAP2 and XIAP, and 250 ng each for Livin αand Livin β) together with 2.5 μg of Smac expression plasmids or pcDNA3.1(−) blank plasmid were used for single-well transfection in the absence of antibiotics. The cells were harvested 12 hours after the transfection and lysed with 0.5% CHAPS in 20 mM HEPES (pH 7.4), 10 mM KCl, 1 mM MgCl2 and 1 mM DTT. The lysates were centrifuged and the protein concentrations of the supernatants were quantified by the modified Bradford method (36).
(§2) Western Blot analysis—Proteins were resolved by SDS-PAGE and transferred to nitrocellulose filters. The filters were blocked with 5% milk and probed with antibodies as indicated. The signals were visualized with the enhanced chemiluminescence method.
(§3) To investigate the effect of Smac polypeptide on IAP protein levels, HeLa cells were transfected with the expression vectors for Smac and various IAPs. Briefly, HeLa cells were either transfected with IAP alone (Lane 2, 4 and 6), or together with Smac polypeptide (Lane 3, 5 and 7), or with Smac polypeptide alone (Lane 1). Equal amounts of cell lysates (7 μg) were immunoblotted with either the HRP-conjugated anti-FLAG antibody (shown in the top panel) in order to detect N-terminal 3×FLAG tagged IAPs, or with the anti-c-Myc antibody (bottom panel) to detect C-terminal c-Myc tagged Smac. The ubiquitin fusion technique was used to secure the production of mature Smac protein with the expected N-terminal AVPI motif (6, 37).
(§4) Because it is known that the His^588 residue in the RING finger domain is important for the IAP E3 activity (22), this residue was mutated to test whether Smac stimulated the ubiquitylation-mediated degradation of both c-IAP1 and c-IAP2. In each case, His^588 in c-IAP1 and His^574 in c-IAP2 was mutated to Ala (H588A mutant and H574A mutant, respectively) and the results are depicted in FIGS. 2A and 2B. The c-IAP1 WT or H588A mutant plasmids together with either Smac WT or Smac ΔA mutant, or with pcDNA3.1 (−) blank plasmid were co-transfected into HeLa cells (FIG. 2A). The c-IAP2 WT or H574A mutant plasmids together with either Smac WT or Smac ΔA mutant, or with pcDNA3.1 (−) blank plasmid were co-transfected into HeLa cells (FIG. 2B). As controls, HeLa cells were also transfected with either Smac WT or ΔA plasmids together with the blank p3×FLAG-CMV-7 plasmid. The transfected cells were cultivated either in the absence (see lanes 1-7 of FIGS. 2A and 2B) or in the presence (see lanes 8-14 of FIGS. 2A and 2B) of MG132. Equal amounts of soluble proteins (7 μg) from the transfected cells were immunoblotted with either the HRP-conjugated anti-FLAG antibody (see top panel of FIGS. 2A and 2B) to detect N-terminal 3×FLAG tagged IAPs, or with the anti-c-Myc antibody (see middle panel of FIGS. 2A and 2B) to detect C-terminal c-Myc tagged Smac. The anti-Actin immunoblotting results were to show equal protein loading (see bottom panel of FIGS. 2A and 2B).

XIAP = XIAP (Homo sapiens, UniProt P98170); assay: Co-transfection of HeLa cells with XIAP and Smac plasmids, Western blot; type: cell-based; set-up: expressed in transfected cells; host or cells: HeLa; details: presence of MG132
XIAP, sequence (P98170 whole entry): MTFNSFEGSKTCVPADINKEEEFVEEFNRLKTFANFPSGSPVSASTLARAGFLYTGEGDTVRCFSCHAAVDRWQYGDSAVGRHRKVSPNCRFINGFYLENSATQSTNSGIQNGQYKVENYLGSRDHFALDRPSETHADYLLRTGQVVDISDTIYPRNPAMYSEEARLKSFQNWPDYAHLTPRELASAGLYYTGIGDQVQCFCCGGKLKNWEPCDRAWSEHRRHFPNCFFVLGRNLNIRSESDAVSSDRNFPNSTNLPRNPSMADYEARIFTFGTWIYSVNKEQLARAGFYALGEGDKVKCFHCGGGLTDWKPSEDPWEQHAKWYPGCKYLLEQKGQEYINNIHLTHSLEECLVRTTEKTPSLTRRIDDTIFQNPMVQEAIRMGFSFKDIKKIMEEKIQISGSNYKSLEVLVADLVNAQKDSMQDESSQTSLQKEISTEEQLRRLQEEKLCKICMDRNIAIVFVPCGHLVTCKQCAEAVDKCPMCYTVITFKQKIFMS
Method: as §1, §2, §3
It is known that XIAP is ubiquitylated by its own E3 activity when expressed in HEK 293T cells and that this auto-ubiquitylation and subsequent degradation is stimulated by Reaper (26). In the current study, XIAP transiently expressed in HeLa cells was ubiquitylated as well; however, mono-ubiquitylation rather than poly-ubiquitylation of XIAP was the major product (see FIG. 3A). Briefly, XIAP WT or H467A mutant plasmids together with either Smac WT or ΔA, or with pcDNA3.1(−) blank plasmid, were co-transfected into the HeLa cells. As controls, HeLa cells were also transfected with either Smac WT or ΔA plasmids together with the blank p3×FLAG-CMV-7 plasmid. The transfected cells were cultivated either in the absence (see lanes 1-7 of FIG. 3A) or in the presence (see lanes 8-14 of FIG. 3A) of MG132. Equal amounts of soluble proteins (7 μg) from the transfected cells were immunoblotted with either the HRP-conjugated anti-FLAG antibody (see top panel of FIG. 3A) to detect N-terminal 3×FLAG tagged IAPs, or with the anti-c-Myc antibody (see middle panel of FIG. 3A) to detect Smac. The anti-Actin immunoblotting results were to show equal protein loading (see bottom panel of FIG. 3A).

c-IAP2 = target: T1, c-IAP2 (Homo sapiens, UniProt Q13489); assay: Co-transfection of HeLa cells with c-IAP2 and Smac plasmids, Western blot; type: cell-based; details: MG132 added
T1 construct: produced not only the expected full length c-IAP1 or c-IAP2; expressed in transfected cells; host or cells: HeLa
T1 sequence (Q13489 whole entry): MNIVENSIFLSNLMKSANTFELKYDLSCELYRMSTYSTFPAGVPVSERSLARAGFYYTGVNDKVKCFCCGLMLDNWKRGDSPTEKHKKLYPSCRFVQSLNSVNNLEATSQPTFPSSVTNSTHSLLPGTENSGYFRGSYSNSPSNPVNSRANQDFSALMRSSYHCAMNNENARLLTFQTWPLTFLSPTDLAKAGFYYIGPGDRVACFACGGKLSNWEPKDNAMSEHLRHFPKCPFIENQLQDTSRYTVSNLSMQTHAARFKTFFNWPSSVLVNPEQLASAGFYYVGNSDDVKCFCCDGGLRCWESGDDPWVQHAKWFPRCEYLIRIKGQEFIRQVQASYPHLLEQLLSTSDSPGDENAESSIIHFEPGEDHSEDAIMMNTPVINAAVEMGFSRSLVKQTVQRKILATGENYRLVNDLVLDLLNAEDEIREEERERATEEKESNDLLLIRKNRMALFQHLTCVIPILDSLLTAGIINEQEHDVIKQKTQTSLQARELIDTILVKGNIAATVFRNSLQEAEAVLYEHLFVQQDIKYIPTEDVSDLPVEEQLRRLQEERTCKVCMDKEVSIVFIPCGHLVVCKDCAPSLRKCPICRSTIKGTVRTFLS
Method: as §1, §2, §3, §4

c-IAP1 [2] = assay: In vitro ubiquitylation assay of purified c-IAP1 and BIR deletion mutants; type: biochemical, human
Method: In vitro ubiquitylation assays—In vitro ubiquitylation assays were carried out as previously described (29). IAP proteins (200 nM) were incubated with or without Smac polypeptide for 2 hours at 30° C. in a reaction system containing 50 mM Tris-HCl (pH 7.5), 50 mM NaCl, 2 mM Mg-ATP, 20 μM mammalian ubiquitin, 100 nM rabbit ubiquitin-activating enzyme (E1) and 400 nM of recombinant human ubiquitin-conjugating enzymes (E2). The reactions were stopped by adding equal volumes of 2×SDS sample loading buffer followed by Western Blot analysis.
To determine whether Smac promotes auto-ubiquitylation of XIAP, purified XIAP (without tag) was incubated for 2 hours at 30° C. either with or without different concentrations of Smac or with Smac ΔA in the reconstituted ubiquitylation reaction system (Ub Mix) consisting of 50 mM Tris-HCl (pH 7.5), 50 mM NaCl, 2 mM Mg-ATP, 20 μM mammalian ubiquitin, 100 nM rabbit ubiquitin-activating enzyme (E1) and 400 nM UbCH6 (E2). The reactions were stopped by adding equal volumes of 2×SDS sample loading buffer and the products were subjected to SDS-PAGE followed by immunoblotting with anti-XIAP antibody. The purified XIAP was active in directing poly-ubiquitylation. But the auto-ubiquitylation of XIAP was not enhanced by Smac.
Smac ΔA and the peptide Smac-7M were used as negative controls. The reactions were stopped by adding equal volumes of 2×SDS sample loading buffer and the products were subjected to SDS-PAGE followed by immunoblotting with anti-c-IAP1 antibody. The arrows indicate the unmodified full length or deleted c-IAP1.
To verify this, stepwise deletion was performed of the first BIR (ΔBIR1, residues 1-161), the first two BIRs (ΔBIR1-2, residues 1-265), or all the three BIR domains (ΔBIR1-2-3, residues 1-339) from c-IAP1. All these mutants and the full-length wild type c-IAP1 were purified as a non-tagged form by using the pTYB11 Intein system (New England Biolabs).
Target sequence in this assay (Q13490 162-618): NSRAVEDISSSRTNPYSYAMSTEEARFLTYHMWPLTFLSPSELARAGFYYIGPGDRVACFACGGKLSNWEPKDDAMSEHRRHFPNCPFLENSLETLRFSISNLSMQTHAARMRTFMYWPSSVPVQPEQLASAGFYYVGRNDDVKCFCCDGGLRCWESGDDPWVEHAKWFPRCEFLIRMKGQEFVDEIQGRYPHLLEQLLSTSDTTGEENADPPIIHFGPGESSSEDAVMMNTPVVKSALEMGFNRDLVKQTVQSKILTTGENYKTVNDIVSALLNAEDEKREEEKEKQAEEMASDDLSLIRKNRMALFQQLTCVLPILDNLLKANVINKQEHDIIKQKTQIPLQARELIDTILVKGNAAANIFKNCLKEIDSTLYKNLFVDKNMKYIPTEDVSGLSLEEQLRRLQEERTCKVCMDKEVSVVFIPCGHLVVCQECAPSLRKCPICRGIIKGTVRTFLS

CC(C)C[C@@H](C=O)NC(=O)[C@H](CC(C)C)NC(=O)[C@H](CC(C)C)NC(=O)OCc1ccccc1 [MG132, reference compound] (Cbz-Leu-Leu-Leu-aldehyde) was tested, and the “H588A c-IAP1 protein level” value (c-IAP1 [1]) was “did not cause a significant increase”, the “amount of wild type c-IAP1” value (c-IAP1 [1]) was “dramatically increased” and the “poly-ubiquitylated XIAP products” value (XIAP) was “more poly-ubiquitylated XIAP products could be detected”. The “level of c-IAP2” value (c-IAP2) was “did not show such a significant change”.

With “AVPIAQ (listed as Homo sapiens) [Smac-6]” the “stimulation of E3 activity of c-IAP compared with full length Smac” value (c-IAP1 [2]; as illustrated in the Examples) was “as effectively as the full length Smac polypeptide” and the “E3 activity of c-IAP1ΔBIR1” value (c-IAP1 [2]; peptides and controls, FIG. 7B) was “effectively stimulated E3 activity”.

Source: patent US20060019335A1, “Compositions and methods to promote c-IAP autodegradation” (priority 2004, published 2006)
